According to patent US7122683B2, “Amides useful as monoamine re-uptake inhibitors” (Pfizer Inc., priority 2004, dated 2006):
Counter-ions that a name gives are not always drawn.

Experiments:
[1] = target: T1, human noradrenaline transporter (hNET) (Homo sapiens, UniProt P23975); test: SPA radioligand binding at human noradrenaline transporter (3H-nisoxetine); details: hNET membranes from HEK-293 cells, Ki from IC50 by Cheng-Prusoff, geometric mean, read-out: NRI Ki
T1 construct: expressed in transfected cells; host or cells: HEK-293
T1 sequence (P23975 whole entry): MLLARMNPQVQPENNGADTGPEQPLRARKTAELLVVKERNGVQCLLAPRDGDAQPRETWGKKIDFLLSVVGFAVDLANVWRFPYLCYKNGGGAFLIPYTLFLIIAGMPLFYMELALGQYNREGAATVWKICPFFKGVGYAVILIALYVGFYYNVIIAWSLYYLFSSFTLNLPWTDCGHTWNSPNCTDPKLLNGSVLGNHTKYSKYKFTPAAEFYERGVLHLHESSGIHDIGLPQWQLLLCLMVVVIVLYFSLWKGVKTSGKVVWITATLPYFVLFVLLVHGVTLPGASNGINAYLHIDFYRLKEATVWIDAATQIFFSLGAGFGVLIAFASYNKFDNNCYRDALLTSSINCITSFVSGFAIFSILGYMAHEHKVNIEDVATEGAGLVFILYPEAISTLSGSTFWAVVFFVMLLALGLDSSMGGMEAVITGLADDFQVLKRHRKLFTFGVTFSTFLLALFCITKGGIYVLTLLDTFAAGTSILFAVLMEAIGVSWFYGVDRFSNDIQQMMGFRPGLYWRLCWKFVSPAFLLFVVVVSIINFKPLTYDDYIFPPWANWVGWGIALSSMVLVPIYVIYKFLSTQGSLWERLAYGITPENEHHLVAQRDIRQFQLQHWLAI
Procedure: (§1) The compounds were tested for biological activity by their ability to inhibit binding of selective radioligands at the human serotonin and noradrenaline transporters (SERT and NET, respectively), using scintillation proximity assay (SPA) technology. The SPA binding was performed using cellular membrane preparations prepared from cell lines expressing human cDNA encoding either SERT or NET (hSERT, hNET), using the radioligands ^3H-citalopram and ^3H-nisoxetine.
(§2) Human embryonic kidney cells (HEK-293) expressing each transporter were maintained as a continuous culture, using standard cell culture techniques, in 50 mL of growth medium (see Media and Buffers for composition) in 225 cm^2 flasks, at 37° C. in a humidified atmosphere with 5% CO2 present. Cells were passaged from a 90% confluent monolayer at a ratio of 1:3–1:4.
(§3) For cell harvesting, the growth medium was removed from the monolayer and the cells were incubated with cell dissociation solution (Sigma) until showing signs of dissociation. The cells were subsequently knocked from the base of the flask and pelleted by centrifugation for storage (frozen at −80° C.) prior to further use.
(§4) Cell pellets were thawed on ice and resuspended in 3 mL of membrane preparation buffer (see Media and Buffers for composition) per 1 mL of packed cell volume, using a vortex mixer to disperse the cell pellet. After incubation on ice for 10 minutes, the suspension was homogenised for four individual 10 second intervals using a hand-held homogeniser. The homogenate was then centrifuged at 1075×g for 20 minutes at 4° C.
(§5) The supernatants were then collected and retained. […]
(§6) The pooled supernatants were centrifuged at 35000×g for 30 minutes at 4° C., and the supernatants discarded. […] Protein concentrations were then measured and the membrane suspension was finally frozen in aliquots of set volume and stored at −80° C. prior to use in assays.
(§7) The specific SPA bead type differed for each transporter, wheat germ agglutinin-coated yttrium silicate (YSi WGA) SPA beads were used for hSERT and WGA-coated polyvinyltoluene (PVT WGA) SPA beads for hNET assays. For each batch of membrane used, optimal concentrations of bead and membrane were determined
(§8) Tritiated radioligands specific to each transporter (^3H-citalopram for hSERT and ^3H-nisoxetine for hNET) were used. The assay free radioligand concentration was expressed as a percentage of the total free radioligand concentration to give an estimate of the radioligand depletion. […]
(§9) The affinity of the specific radioligand for the respective transporter was determined for each membrane batch at the selected protein and bead concentrations. […]
(§10) The mean KD for a radioligand at a batch of membranes was determined from data from a minimum of three separate assays. […]

[2] = target: T2, human serotonin transporter (hSERT) (Homo sapiens, UniProt P31645); test: SPA radioligand binding at human serotonin transporter (3H-citalopram); details: hSERT membranes from HEK-293 cells, Ki from IC50 by Cheng-Prusoff, geometric mean, read-out: SRI Ki
T2 construct: expressed in transfected cells; host or cells: HEK-293
T2 sequence (P31645 whole entry): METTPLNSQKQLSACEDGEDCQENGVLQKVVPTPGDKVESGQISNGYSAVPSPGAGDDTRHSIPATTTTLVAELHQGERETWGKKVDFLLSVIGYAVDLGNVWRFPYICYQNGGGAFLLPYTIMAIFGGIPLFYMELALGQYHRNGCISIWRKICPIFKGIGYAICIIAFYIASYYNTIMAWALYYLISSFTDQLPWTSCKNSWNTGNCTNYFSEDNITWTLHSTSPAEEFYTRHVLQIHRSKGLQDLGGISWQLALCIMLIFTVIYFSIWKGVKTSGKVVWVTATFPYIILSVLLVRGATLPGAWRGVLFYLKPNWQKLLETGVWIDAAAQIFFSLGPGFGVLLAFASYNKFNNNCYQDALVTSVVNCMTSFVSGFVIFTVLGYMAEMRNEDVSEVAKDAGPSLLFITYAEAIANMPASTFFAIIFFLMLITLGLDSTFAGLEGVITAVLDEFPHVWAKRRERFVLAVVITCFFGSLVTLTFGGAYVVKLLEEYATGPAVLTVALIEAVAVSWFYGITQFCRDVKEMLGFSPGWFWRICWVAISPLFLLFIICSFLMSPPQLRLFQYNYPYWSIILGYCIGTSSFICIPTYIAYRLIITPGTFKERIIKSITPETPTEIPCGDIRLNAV
Procedure: as §1, §2, §3, §4, §5, §6, §7, §8, §9, §10

Row | Ki [1] [µM] | Ki [2] [µM] | SMILES
1 | 0.009 | 0.011 | O=C(c1ccccc1Cl)N(C1CCCCC1)[C@H]1CCNC1 [Example 14, 2-chloro-N-cyclohexyl-N-[(3S)pyrrolidin-3-yl]benzamide]
2 | 0.011 | 0.009 | O=C(c1cccc(Cl)c1Cl)N(C1CCCCC1)[C@H]1CCNC1 [Example 6, 2,3-dichloro-N-cyclohexyl-N-[(3S)-pyrrolidin-3-yl]benzamide hydrochloride]
3 | 0.014 | 0.003 | Cc1c(Cl)cccc1C(=O)N(CC1(C)CC1)[C@H]1CCNC1 [Example 20, 3-chloro-2-methyl-N-[(1-methylcyclopropyl)methyl]-N-[(3S)pyrrolidin-3-yl]benzamide hydrochloride]
4 | 0.015 | 0.005 | O=C(c1cccc(Cl)c1Cl)N(C1CCCC1)[C@H]1CCNC1 [Example 1, 2,3-dichloro-N-cyclopentyl-N-[(3S)pyrrolidin-3-yl]benzamide hemi-edisylate]
